pIC50: −log10 of the molar value.
Columns and labels:
[1] = target: T1, Sex hormone-binding globulin (Homo sapiens) (UniProt P04278); assay: Displacement of [3H]DHT from human SHBG relative to testosterone
T1 sequence (whole entry): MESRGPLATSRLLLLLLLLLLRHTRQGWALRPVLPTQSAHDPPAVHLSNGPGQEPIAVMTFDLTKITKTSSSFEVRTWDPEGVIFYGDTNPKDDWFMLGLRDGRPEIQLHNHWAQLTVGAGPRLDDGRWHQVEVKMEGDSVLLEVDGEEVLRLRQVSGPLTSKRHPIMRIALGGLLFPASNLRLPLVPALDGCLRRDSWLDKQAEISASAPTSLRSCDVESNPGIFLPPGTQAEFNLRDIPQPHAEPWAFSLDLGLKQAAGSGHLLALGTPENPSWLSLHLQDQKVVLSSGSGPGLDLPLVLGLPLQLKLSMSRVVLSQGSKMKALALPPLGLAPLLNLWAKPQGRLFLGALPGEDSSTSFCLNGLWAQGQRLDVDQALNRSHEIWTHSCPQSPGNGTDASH

[2] = target: T2, Sex hormone-binding globulin (Homo sapiens, UniProt P04278); assay: Displacement of [3H]DHT from human SHBG
T2 sequence (P04278 whole entry): T1 sequence (whole entry)

Structure (SMILES)	relative binding affinity (RBA) [1]	pIC50 [2]
CCC(c1ccc(O)c(O)c1)C(CC)c1ccc(O)c(F)c1 (stereo not given)	714	4.99
CCCC1c2ccc(O)cc2CC1c1ccc(O)cc1 (stereo not given)	768	4.95
C[C@]12CC[C@@H]3c4ccc(O)cc4CC[C@H]3[C@@H]1CC[C@@H]2O	3.5	–
Cc1cc(Cc2cc(C)c(O)c(CO)c2)cc(CO)c1O	3330	4.32
CC12CCNC(=O)C=C1CCC1C2CCC2(C)C(O)CCC12 (stereo not given)	66	6.02
C[C@]12CC[C@H]3[C@@H](CCC4=CC(=O)CC[C@@]43C)[C@@H]1CC[C@@H]2O [TESTOSTERONE]	–	7.85
